Assay results as given in ChEMBL document CHEMBL3045429, “Exploration of antimicrobial potential of pyrazolo[3,4-b]pyridine scaffold bearing benzenesulfonamide and trifluoromethyl moieties” (2013).
Converted amounts (≈) assume the structure as drawn. The source made the active and inactive calls. The calls are words filed in the database; no cut-off is given here.

What was measured:
[1] = tested on: Bacillus subtilis; assay: Antibacterial activity against Bacillus subtilis MTCC 121 assessed as growth inhibition after 24 hr by agar well diffusion method; type: functional; conditions: MTCC 121, 24 h
[2] = tested on: Candida albicans; assay: Antifungal activity against Candida albicans MTCC 227 assessed as growth inhibition at 4 mg/mL after 24 hr by agar well diffusion method; type: functional; conditions: for zone of inhibition at 4000 µg/mL: MTCC 227, 24 h, read-out: DIZ
[3] = tested on: Candida albicans; assay: Antifungal activity against Candida albicans MTCC 227 assessed as growth inhibition after 24 hr by agar well diffusion method; type: functional; conditions: MTCC 227, 24 h
[4] = tested on: Saccharomyces cerevisiae; assay: Antifungal activity against Saccharomyces cerevisiae MTCC 170 assessed as growth inhibition after 24 hr by agar well diffusion method; type: functional; conditions: MTCC 170, 24 h
[5] = tested on: Bacillus subtilis; assay: Antibacterial activity against Bacillus subtilis MTCC 121 assessed as growth inhibition at 4 mg/mL after 24 hr by agar well diffusion method; type: functional; conditions: for zone of inhibition at 4000 µg/mL: MTCC 121, 24 h, read-out: DIZ
[6] = tested on: Staphylococcus aureus; assay: Antibacterial activity against Staphylococcus aureus MTCC 96 assessed as growth inhibition at 4 mg/mL after 24 hr by agar well diffusion method; type: functional; conditions: for zone of inhibition at 4000 µg/mL: MTCC 96, 24 h, read-out: DIZ
[7] = tested on: Escherichia coli; assay: Antibacterial activity against Escherichia coli MTCC 1652 assessed as growth inhibition at 4 mg/mL after 24 hr by agar well diffusion method; type: functional, organism-based
[8] = tested on: Saccharomyces cerevisiae; assay: Antifungal activity against Saccharomyces cerevisiae MTCC 170 assessed as growth inhibition at 4 mg/mL after 24 hr by agar well diffusion method; type: functional; conditions: for zone of inhibition at 4000 µg/mL: MTCC 170, 24 h, read-out: DIZ
[9] = tested on: Staphylococcus aureus; assay: Antibacterial activity against Staphylococcus aureus MTCC 96 assessed as growth inhibition after 24 hr by agar well diffusion method; type: functional; conditions: MTCC 96, 24 h

| SMILES | MIC [1] [µg/mL] | zone of inhibition at 4000 µg/mL [2] [mm] | MIC [3] [µg/mL] | MIC [4] [µg/mL] | zone of inhibition at 4000 µg/mL [5] [mm] | zone of inhibition at 4000 µg/mL [6] [mm] | growth inhibition (GI) [7] | zone of inhibition at 4000 µg/mL [8] [mm] | MIC [9] [µg/mL] | growth inhibition (GI) [2] | growth inhibition (GI) [5] | growth inhibition (GI) [6] | growth inhibition (GI) [8] |
| --- | --- | --- | --- | --- | --- | --- | --- | --- | --- | --- | --- | --- | --- |
| NS(=O)(=O)c1ccc(-n2nc(-c3ccccc3)c3c(C(F)(F)F)cc(-c4ccc(F)cc4)nc32)cc1 | 64 (≈ 125 µM) | 14.6 | 128 (≈ 250 µM) | 64 (≈ 125 µM) | 19.6 | 17.6 | inactive | 15.3 | 128 (≈ 250 µM) | – | – | – | – |
| COc1ccc(-c2cc(C(F)(F)F)c3c(-c4ccc(Cl)cc4)nn(-c4ccc(S(N)(=O)=O)cc4)c3n2)cc1 | – | – | – | – | – | – | inactive | – | – | inactive | inactive | inactive | inactive |
| Cc1ccc(-c2cc(C(F)(F)F)c3c(-c4ccccc4)nn(-c4ccc(S(N)(=O)=O)cc4)c3n2)cc1 | 64 (≈ 126 µM) | 16.3 | 64 (≈ 126 µM) | 64 (≈ 126 µM) | 20.3 | 21.3 | inactive | 15.6 | 32 (≈ 62.9 µM) | – | – | – | – |
| Cc1ccc(-c2cc(C(F)(F)F)c3c(-c4ccc(Cl)cc4)nn(-c4ccc(S(N)(=O)=O)cc4)c3n2)cc1 | – | – | – | – | – | – | inactive | – | – | inactive | inactive | inactive | inactive |
| Cc1ccc(-c2nn(-c3ccc(S(N)(=O)=O)cc3)c3nc(-c4ccc(F)cc4)cc(C(F)(F)F)c23)cc1 | 128 (≈ 243 µM) | – | – | – | 15.6 | 13.6 | inactive | – | > 256 | inactive | – | – | inactive |
| NS(=O)(=O)c1ccc(-n2nc(-c3ccccc3)c3c(C(F)(F)F)cc(-c4ccc5ccccc5c4)nc32)cc1 | 256 (≈ 470 µM) | – | – | – | 14.6 | 13.6 | inactive | – | 256 (≈ 470 µM) | inactive | – | – | inactive |
| NS(=O)(=O)c1ccc(-n2nc(-c3ccc(Cl)cc3)c3c(C(F)(F)F)cc(-c4ccc(Br)cc4)nc32)cc1 | – | – | – | – | – | – | inactive | – | – | inactive | inactive | inactive | inactive |
| NS(=O)(=O)c1ccc(-n2nc(-c3ccc(Cl)cc3)c3c(C(F)(F)F)cc(-c4ccc5ccccc5c4)nc32)cc1 | 128 (≈ 221 µM) | – | – | – | 16.3 | 15.3 | inactive | – | 128 (≈ 221 µM) | inactive | – | – | inactive |
| Cc1ccc(-c2nn(-c3ccc(S(N)(=O)=O)cc3)c3nc(C(F)(F)F)cc(C(F)(F)F)c23)cc1 | 128 (≈ 256 µM) | – | – | – | 16.6 | 15.6 | inactive | – | 128 (≈ 256 µM) | inactive | – | – | inactive |
| Cc1ccc(-c2nn(-c3ccc(S(N)(=O)=O)cc3)c3nc(C)cc(C(F)(F)F)c23)cc1 | 128 (≈ 287 µM) | – | – | – | 16.3 | 15.3 | inactive | – | 128 (≈ 287 µM) | inactive | – | – | inactive |
| COc1ccc(-c2cc(C(F)(F)F)c3c(-c4ccc(C)cc4)nn(-c4ccc(S(N)(=O)=O)cc4)c3n2)cc1 | 128 (≈ 238 µM) | – | – | – | 17.3 | 14.6 | inactive | – | 256 (≈ 475 µM) | inactive | – | – | inactive |
| Cc1cc(C(F)(F)F)c2c(-c3ccc(Cl)cc3)nn(-c3ccc(S(N)(=O)=O)cc3)c2n1 | 128 (≈ 274 µM) | – | – | – | 17.6 | 18.6 | inactive | – | 64 (≈ 137 µM) | inactive | – | – | inactive |
| Cc1ccc(-c2nn(-c3ccc(S(N)(=O)=O)cc3)c3nc(-c4ccc(Br)cc4)cc(C(F)(F)F)c23)cc1 | 128 (≈ 218 µM) | – | – | – | 15.6 | 14.3 | inactive | – | 256 (≈ 436 µM) | inactive | – | – | inactive |
